How the values were obtained:
[1] = system: Salmonella enteritidis PT4; parameters: species or system Ross 308 male broilers; details: in vivo
[2] = parameters: species or system Ross 308 male broilers; details: in vivo
[3] = in vivo

Q: Which “Salmonella counts (ranked) vs control group” value [1] does the source give for `COc1cc(CNC(=O)CCCCC#Cc2ccccc2)ccc1O` [phenylcapsaicin] here?
A: The value was “consistently lower”.

Q: What about the “Salmonella counts vs control chickens on a diet without phenylcapsaicin” value [1] of the same compound?
A: The value was “numerically had lower”.

Q: What about the “caecal colonization of Salmonella enteritidis PT4” value [1] of the same compound?
A: Its value is “not affected”.

Q: And the “differences in ranked numbers of Salmonella counts between control and 20 mg/kg treatment group” value [1]?
A: Its value is “highly significant”.

Q: And the “effective dose (most probable range)” value [1]?
A: Its value is “up to 20 mg/kg”.

Q: What about the “next highest Salmonella value in caecal digesta” value [1] of the same compound?
A: Its value is 4.0×10^6 CFU/g.

Q: And the “two highest Salmonella values in caecal digesta (considered outliers)” value [1]?
A: Its value is 1.2×10^7 CFU/g.

Q: And the spleen weight [2]?
A: The spleen weight was “did not affect”.

Q: And the “BWG with increasing dose level” value [3]?
A: Its value is “tendency towards a lower BWG”.

Q: And the “body weight (BW) vs 0, 20 or 28 mg/kg” value [3]?
A: The value was “significantly lower”.

Q: And the “body weight gain (BWG) vs 0, 20 or 28 mg/kg” value [3]?
A: The value was “significantly lower”.

Q: What about the daily feed intake [3] of the same compound?
A: Its daily feed intake is “no effect”.

Q: And the “feed conversion ratio vs other Salmonella inoculated treatments” value [3]?
A: The value was “higher”.

Q: And the feed intake [3]?
A: Its feed intake is “did not affect”.

Q: What about the BWG ([3]; 36 mg/kg) of the same compound?
A: The BWG was “numerically the lowest”.

Q: What about the FCR ([3]; 36 mg/kg) of the same compound?
A: Its FCR is “highest”.

— patent US11000050B2 (priority 2015, dated 2021)
